Measurements reported in patent publication US12552771B2, “Carboxylic acid containing azetidinyl compounds for the treatment of neurodegenerative diseases” (Celgene Corporation, priority 2021, dated 2026).
pEC50: −log10 of the molar value.

biological target: T1, S1P5 receptors (Homo sapiens, UniProt Q9H228); experiment: [35S]-GTPγS binding assay with CHO-S1P5 receptor membranes; assay type: biochemical; details: membranes of CHO cells expressing recombinant S1P5 receptors; measure of S1P5 agonism
T1 construct: expressed in transfected cells; host or cells: CHO cells (membranes)
T1 sequence (Q9H228 whole entry): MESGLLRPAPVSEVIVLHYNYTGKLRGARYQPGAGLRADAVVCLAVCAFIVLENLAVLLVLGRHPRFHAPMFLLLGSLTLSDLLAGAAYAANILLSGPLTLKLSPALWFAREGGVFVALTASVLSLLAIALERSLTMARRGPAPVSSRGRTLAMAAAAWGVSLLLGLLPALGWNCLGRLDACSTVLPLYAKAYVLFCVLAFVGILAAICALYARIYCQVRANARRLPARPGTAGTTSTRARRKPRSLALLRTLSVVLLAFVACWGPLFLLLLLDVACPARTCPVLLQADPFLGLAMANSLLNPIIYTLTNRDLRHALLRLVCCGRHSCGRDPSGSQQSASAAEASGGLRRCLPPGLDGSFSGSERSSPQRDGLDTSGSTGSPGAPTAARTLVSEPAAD
Method: CHO cells expressing recombinant S1P5 receptors were cultured in 500 cm^2 culture trays and, once confluent, rinsed and detached with cell-lifting buffer (10 mM HEPES, 154 mM NaCl, 6.85 mM EDTA, pH 7.4). Cells were then pelleted by centrifugation, resuspended, and homogenized in membrane preparation buffer (10 mM HEPES and 10 mM EDTA, pH 7.4) using a Polytron PT 1200E homogenizer (Kinematica, Luzern, Switzerland). Cellular proteins were pelleted by centrifugation at 48,000×g at 4° C. for 30 minutes. The resulting supernatant was discarded, and the pellet was re-suspended again in membrane preparation buffer, homogenized for a second time, and then centrifuged again as described above. The final cellular protein pellet was suspended in ice cold resuspension buffer (10 mM HEPES and 0.1 mM EDTA, pH 7.4), divided into aliquots, and stored at −80° C. until use.
Functional binding assays for [^35]-GTPγS were performed in 96-well non-binding surface plates with a final volume of 200 μL. The test compounds were serially diluted in DMSO and added to assay plates using a Tecan D300E digital printer with a total volume of […]. The control sphingosine-1-phosphate (SiP) was prepared separately by preparing a 400 μM stock solution from a 100 nmol pellet of SiP in 10 mM Na2CO3 with 2% […]. The serial dilution of SiP was done using complete assay buffer (20 mM HEPES, 10 mM MgCl2, 100 mM NaCl, 1 mM EDTA, 0.1% fatty acid free bovine serum albumin (BSA), and 30 μg/mL saponin, pH 7.4) and transferred to wells already containing 0.4 μL DMSO. All the wells were then loaded to a total volume of 40 μL of complete assay buffer, except the non-specific binding (NSB) wells. For NSB wells, 40 μL/well of 50 μM GTPγS (Sigma Aldrich, cat #G8634, St. Louis, MO) was added to wells containing 0.4 μL of DMSO. The assay was started by the addition of 120 μL/well of CHO-S1P receptor membrane solution containing 40 μg/mL of membrane protein, 16.67 μM guanosine diphosphate (GDP; Sigma Aldrich, cat #G7127, St. Louis, MO), and 2.5 mg/mL of WGA PVT SPA beads in complete buffer. Assay plates were then sealed and incubated at room temperature with gentle agitation for 30 minutes. Next, 40 μL/well of 1 nM of [^35]-GTPγS (PerkinElmer, cat #NEG030X250UC, Waltham, MA) in basic assay buffer (20 mM HEPES, 10 mM MgCl2, 100 mM NaCl, and 1 mM EDTA, pH7.4) was added to the assay plates to yield a final concentration of 200 pM and the plates were further incubated for 40 minutes at room temperature with gentle agitation. The assay was terminated by centrifugation of the plates at 1000 rpm for 3 minutes using an Eppendorf 5810R centrifuge (Eppendorf, Hamburg, Germany) and G protein bound radioactivity was quantitated using a MicroBeta2 microplate scintillation counter (PerkinElmer, Waltham, MA). As G protein bound radioactivity directly correlates to receptor activation and coupling to the G protein, this assay is a measure of S1P5 agonism.

First: O=C(O)C1CCN(Cc2ccc(C3CN(c4ccc(C5CC5)cc4)C3)cc2)CC1 [Compound 43, 1-(4-(1-(4-cyclopropylphenyl)azetidin-3-yl)benzyl)piperidine-4-carboxylic acid]
Second: O=C(O)[C@H]1CCN(Cc2ccc(C3CN(c4c(Cl)cccc4Cl)C3)cc2)C1 [Compound 12a, (S)-1-(4-(1-(2,6-dichlorophenyl)azetidin-3-yl)benzyl)pyrrolidine-3-carboxylic acid]
The pEC50 of the first is lower: 5.00 to 6.00 for the first, 7.00 to 8.00 for the second. The second is the more potent here.

Cc1cc(CN2CCC(C(=O)O)CC2)cc(C)c1N1CC(F)(c2c(Cl)cccc2Cl)C1 [Compound 36, 1-(4-(3-(2,6-dichlorophenyl)-3-fluoroazetidin-1-yl)-3,5-dimethylbenzyl)-piperidine-4-carboxylic acid] and Cc1cc(N2CC(F)(c3c(Cl)cccc3Cl)C2)cc(C)c1CN1CCC(C(=O)O)CC1 [Compound 37, 1-(4-(3-(2,6-dichlorophenyl)-3-fluoroazetidin-1-yl)-2,6-dimethylbenzyl)-piperidine-4-carboxylic acid] fall in the same range of pEC50: 7.00 to 8.00 for the first, 7.00 to 8.00 for the second.

Cc1cc(C2CN(c3c(Cl)cccc3Cl)C2)cc(C#N)c1CN1CCC(C(=O)O)CC1 [Compound 58, 1-(2-cyano-4-(1-(2,6-dichlorophenyl)azetidin-3-yl)-6-methylbenzyl)-piperidine-4-carboxylic acid] and Cc1cc(C2CN(c3c(C)cccc3C#N)C2)cc(C)c1CN1CCC(C(=O)O)CC1 [Compound 74, 1-(4-(1-(2-cyano-6-methylphenyl)azetidin-3-yl)-2,6-dimethylbenzyl)-piperidine-4-carboxylic acid] cannot be ordered by pEC50: 7.00 to 8.00 for the first, at least 8.00 for the second.

CCc1cccc(C)c1N1CC(c2cc(C)c(CN3CCC(C(=O)O)CC3)c(C)c2)C1 [Compound 68, 1-(4-(1-(2-ethyl-6-methylphenyl)azetidin-3-yl)-2,6-dimethylbenzyl)-piperidine-4-carboxylic acid] and CCc1cccc(CC)c1N1CC(c2cc(C)c(CN3CCC(C(=O)O)CC3)c(C)c2)C1 [Compound 69, 1-(4-(1-(2,6-diethylphenyl)azetidin-3-yl)-2,6-dimethylbenzyl)piperidine-4-carboxylic acid] cannot be ordered by pEC50: at least 8.00 for the first, at least 8.00 for the second.

Cc1cc(C2CN(c3c(Cl)cccc3Cl)C2)cc(C)c1CN1CCC(C(=O)O)C(F)C1 (centres unmarked) [Compound 64, 1-(4-(1-(2,6-dichlorophenyl)azetidin-3-yl)-2,6-dimethylbenzyl)-3-fluoro-piperidine-4-carboxylic acid] and Cc1cc(C2CN(c3c(Cl)cccc3Cl)C2)cc(C)c1CN1CCC(C(=O)O)C(C)C1 (centres unmarked) [Compound 61, 1-(4-(1-(2,6-dichlorophenyl)azetidin-3-yl)-2,6-dimethylbenzyl)-3-methyl-piperidine-4-carboxylic acid] cannot be ordered by pEC50: at least 8.00 for the first, at least 8.00 for the second.

Cc1cc(N2CC(c3c(Cl)cccc3Cl)C2)c(C)cc1CN1CCC(C(=O)O)CC1 [Compound 30, 1-(4-(3-(2,6-dichlorophenyl)azetidin-1-yl)-2,5-dimethylbenzyl)piperidine-4-carboxylic acid] and Cc1cc(CN2CCC(C(=O)O)CC2)cc(C)c1C1CN(c2c(Cl)cccc2Cl)C1 [Compound 20, 1-(4-(1-(2,6-dichlorophenyl)azetidin-3-yl)-3,5-dimethylbenzyl)piperidine-4-carboxylic acid] cannot be ordered by pEC50: at least 8.00 for the first, at least 8.00 for the second.

Cc1cc(C2CN(c3c(Cl)cccc3Cl)C2)cc(C)c1CN1CC(C(=O)O)C1 [Compound 59, 1-(4-(1-(2,6-dichlorophenyl)azetidin-3-yl)-2,6-dimethylbenzyl)azetidine-3-carboxylic acid] and Cc1cc(C2CN(c3c(Cl)cccc3Cl)C2)cc(C)c1CN1CCC(C(=O)O)CC1C (centres unmarked) [Compound 63, 1-(4-(1-(2,6-dichlorophenyl)azetidin-3-yl)-2,6-dimethylbenzyl)-2-methyl-piperidine-4-carboxylic acid] cannot be ordered by pEC50: at least 8.00 for the first, 7.00 to 8.00 for the second.

Compared with O=C(O)C1CCN(C2CCc3cc(N4CC(c5ccccc5F)C4)ccc32)CC1 (single isomer, unassigned) [Compound 10a, 1-(5-(3-(2-fluorophenyl)azetidin-1-yl)-2,3-dihydro-1H-inden-1-yl)piperidine-4-carboxylic acid], O=C(O)C1CCN(C2CCc3cc(N4CC(c5c(F)cccc5F)C4)ccc32)CC1 (single isomer, unassigned) [Compound 9b, 1-(5-(3-(2,6-difluorophenyl)azetidin-1-yl)-2,3-dihydro-1H-inden-1-yl)piperidine-4-carboxylic acid] is lower in pEC50: 7.00 to 8.00 for the first, 6.00 to 7.00 for the second. The first is the more potent here.

O=C(O)C1CCN(C2CCc3cc(C4CN(c5c(Cl)cccc5Cl)C4)cc(F)c32)CC1 (racemic) [Compound 6, 1-(5-(1-(2,6-dichlorophenyl)azetidin-3-yl)-7-fluoro-2,3-dihydro-1H-inden-1-yl)piperidine-4-carboxylic acid] and Cc1cc(C2CN(c3c(Cl)cccc3Cl)C2)cc2c1C(N1CCC(C(=O)O)CC1)CC2 (racemic) [Compound 5, 1-(5-(1-(2,6-dichlorophenyl)azetidin-3-yl)-7-methyl-2,3-dihydro-1H-inden-1-yl)piperidine-4-carboxylic acid] cannot be ordered by pEC50: at least 8.00 for the first, at least 8.00 for the second.

O=C(O)C1CCN(Cc2ccc(N3CC(c4c(Cl)cccc4Cl)C3)cc2F)CC1 [Compound 33, 1-(4-(3-(2,6-dichlorophenyl)azetidin-1-yl)-2-fluorobenzyl)piperidine-4-carboxylic acid] and O=C(O)C1CCN(Cc2ccc(N3CC(c4c(Cl)cccc4Cl)C3)c(F)c2)CC1 [Compound 34, 1-(4-(3-(2,6-dichlorophenyl)azetidin-1-yl)-3-fluorobenzyl)piperidine-4-carboxylic acid] cannot be ordered by pEC50: 7.00 to 8.00 for the first, at least 8.00 for the second.

Cc1cc(C(C)(C)N2CCC(C(=O)O)CC2)cc(C)c1C1CN(c2c(Cl)cccc2Cl)C1 [Compound 86, 1-(2-(4-(1-(2,6-dichlorophenyl)azetidin-3-yl)-3,5-dimethylphenyl)propan-2-yl)piperidine-4-carboxylic acid] and CC(C)(c1ccc(C2CN(c3c(Cl)cccc3Cl)C2)cc1)N1CCC(C(=O)O)CC1 [Compound 17, 1-(2-(4-(1-(2,6-dichlorophenyl)azetidin-3-yl)phenyl)propan-2-yl)piperidine-4-carboxylic acid] cannot be ordered by pEC50: at least 8.00 for the first, at least 8.00 for the second.

Compared with O=C(O)C1CCN(Cc2ccc(C3CN(c4c(Cl)cccc4Cl)C3)cn2)CC1 [Compound 18, 1-((5-(1-(2,6-dichlorophenyl)azetidin-3-yl)pyridin-2-yl)methyl)piperidine-4-carboxylic acid], O=C(O)[C@@H]1CCN(Cc2ccc(C3CN(c4c(Cl)cccc4Cl)C3)cc2)C1 [Compound 12b, (R)-1-(4-(1-(2,6-dichlorophenyl)azetidin-3-yl)benzyl)pyrrolidine-3-carboxylic acid] is higher in pEC50: 6.00 to 7.00 for the first, at least 8.00 for the second. The second is the more potent here.

CCc1cc(C2CN(c3c(Cl)cccc3Cl)C2)cc(CC)c1CN1CCC(C(=O)O)CC1 [Compound 52, 1-(4-(1-(2,6-dichlorophenyl)azetidin-3-yl)-2,6-diethylbenzyl)piperidine-4-carboxylic acid] and Cc1cc(C2CN(c3c(Cl)cccc3Cl)C2)ccc1C(C)N1CCC(C(=O)O)CC1 (single isomer, unassigned) [Compound 16b, 1-(1-(4-(1-(2,6-dichlorophenyl)azetidin-3-yl)-2-methylphenyl)-ethyl)piperidine-4-carboxylic acid] cannot be ordered by pEC50: at least 8.00 for the first, at least 8.00 for the second.

Cc1cc(C2CN(c3c(C)cccc3C(F)F)C2)cc(C)c1CN1CCC(C(=O)O)CC1 [Compound 72, 1-(4-(1-(2-(difluoromethyl)-6-methylphenyl)azetidin-3-yl)-2,6-dimethyl-benzyl)piperidine-4-carboxylic acid] and O=C(O)C1CCN(C2CCc3cc(N4CC(c5c(F)cccc5F)C4)ccc32)CC1 (single isomer, unassigned) [Compound 9a, 1-(5-(3-(2,6-difluorophenyl)azetidin-1-yl)-2,3-dihydro-1H-inden-1-yl)piperidine-4-carboxylic acid] cannot be ordered by pEC50: 7.00 to 8.00 for the first, at least 8.00 for the second.

Molecule O=C(O)C1CN(Cc2ccc(C3CN(c4c(Cl)cccc4Cl)C3)cc2)C1 [Compound 13, 1-(4-(1-(2,6-dichlorophenyl)azetidin-3-yl)benzyl)azetidine-3-carboxylic acid] has a pEC50 of at least 8.00.
